Laboratory results as given in US20260248783A1 (ASCLETIS BIOSCIENCE CO., LTD., priority 2021, published 2026).

Biological target: T1, PD-1/PD-L1 (Homo sapiens, UniProt Q9NZQ7)
T1 construct: Recombinant human PD-L1 protein (19-238) with a Histag at the C-terminus; purchased AcroBiosystems PD1-H5229 (PD-L1); PD1-H5257 (PD-1)
Experiment: PD-1/PD-L1 Homogeneous Time-Resolved Fluorescence (HTRF) Binding Assay
Conditions: PD-1/PD-L1 HTRF activity; 3 nM PD1, 10 nM PD-L1, 25° C.
Experimental: Example 107. PD-1/PD-L1 Homogeneous Time-Resolved Fluorescence (HTRF) Binding Assay
The assays were conducted in a standard black 384-well polystyrene plate with a final volume of 20 μL. Inhibitors were first serially diluted in DMSO and then added to the plate wells before the addition of other reaction components. The final concentration of DMSO in the assay was 1%. The assays were carried out at 25° C. in the PBS buffer (pH 7.4) with 0.05% Tween-20 and 0.1% BSA. Recombinant human PD-L1 protein (19-238) with a Histag at the C-terminus was purchased from AcroBiosystems (PD1-H5229). Recombinant human PD-1 protein (25-167) with Fe tag at the C-terminus was also purchased from AcroBiosystems (PD1-H5257). PD-L1 and PD-1 proteins were diluted in the assay buffer and 10 μL was added to the plate well. Plates were centrifuged and proteins were preincubated with inhibitors for 40 minutes. The incubation was followed by the addition of 10 μL of HTRF detection buffer supplemented with Europium cryptate-labeled anti-human IgG (PerkinElmer-AD0212) specific for Fe and anti-His antibody conjugated to SureLight®—Allophycocyanin (APC, PerkinElmer-AD0059H). After centrifugation, the plate was incubated at 25° C. for 60 min. before reading on a PHERAstar FS plate reader (665 nm/620 nm ratio). Final concentrations in the assay were […], 10 nM PD-L1, 1 nM europium anti-human IgG and 20 nM anti-His-Allophycocyanin. IC50 determination was performed by fitting the curve of percent control activity versus the log of the inhibitor concentration.

T1 sequence (Q9NZQ7 19-238): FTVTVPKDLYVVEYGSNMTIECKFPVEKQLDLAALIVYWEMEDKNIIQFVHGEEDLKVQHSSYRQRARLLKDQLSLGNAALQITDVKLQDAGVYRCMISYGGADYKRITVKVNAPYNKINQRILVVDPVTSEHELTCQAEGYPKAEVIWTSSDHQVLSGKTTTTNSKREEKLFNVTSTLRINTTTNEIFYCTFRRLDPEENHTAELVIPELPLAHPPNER

SMILES | IC50
CCc1cn2nc(-c3cccc(-c4cccc(-c5cc6c(=O)n(C[C@@H]7CCC(=O)N7)c(CC)cn6n5)c4Cl)c3Cl)cc2c(=O)n1C[C@@H]1CCC(=O)N1 [Compound 33, 2,2′-(2,2′-dichloro-[1,1′-biphenyl]-3,3′-diyl)bis(6-ethyl-5-(((S)-5-oxopyrrolidin-2-yl)methyl)pyrazolo[1,5-a]pyrazin-4(5H)-one)] | 10 to 100 nM
Cc1nn2cc(-c3cccc(-c4cccc(-c5cc6c(=O)n(CCN[C@@H](CO)C(=O)O)c(C)nn6c5)c4Cl)c3Cl)cc2c(=O)n1CCN[C@@H](CO)C(=O)O [Compound 64, (2S,2'S)-2,2′-((((2,2′-dichloro-[1,1′-biphenyl]-3,3′-diyl)bis(2-methyl-4-oxopyrrolo[2,1-f][1,2,4]triazine-6,3(4H)-diyl))bis(ethane-2,1-diyl))bis(azanediyl))bis(3-hydroxypropanoic acid)] | 10 to 100 nM
Cc1cn2nc(-c3cccc(-c4cccc(-c5cc6c(=O)n(CCN7CCNCC7)c(C)cn6n5)c4Cl)c3Cl)cc2c(=O)n1CCN1CCNCC1 [Compound 83, 2,2′-(2,2′-dichloro-[1,1′-biphenyl]-3,3′-diyl)bis(6-methyl-5-(2-(piperazin-1-yl)ethyl)pyrazolo[1,5-a]pyrazin-4(5H)-one)] | ≥ 100 nM
O=C1CC[C@@H](Cn2ccn3cc(-c4cccc(-c5cccc(-c6cn7ccn(C[C@@H]8CCC(=O)N8)c(=O)c7n6)c5Cl)c4Cl)nc3c2=O)N1 [Compound 12, 2,2′-(2,2′-dichloro-[1,1′-biphenyl]-3,3′-diyl)bis(7-(((S)-5-oxopyrrolidin-2-yl)methyl)imidazo[1,2-a]pyrazin-8(7H)-one)] | 10 to 100 nM
O=C1CCC(Cn2cc(F)n3cc(-c4cccc(-c5cccc(-c6cc7c(=O)n(CC8CCC(=O)N8)cc(F)n7c6)c5Cl)c4Cl)cc3c2=O)N1 (stereo not drawn) [Compound 16, 7,7′-(2,2′-dichloro-[1,1′-biphenyl]-3,3′-diyl)bis(4-fluoro-2-((5-oxopyrrolidin-2-yl)methyl)pyrrolo[1,2-a]pyrazin-1(2H)-one)] | 10 to 100 nM
Cn1c(CN2CC[C@H](C(=O)O)C2)cn2nc(-c3cccc(-c4cccc(-c5cc6c(=O)n(C)c(CN7CC[C@H](C(=O)O)C7)cn6n5)c4Cl)c3Cl)cc2c1=O [Compound 41, (3S,3'S)-1,1′-(((2,2′-dichloro-[1,1′-biphenyl]-3,3′-diyl)bis(5-methyl-4-oxo-4,5-dihydropyrazolo[1,5-a]pyrazine-2,6-diyl))bis(methylene))bis(pyrrolidine-3-carboxylic acid)] | 10 to 100 nM
O=C(O)CCn1cnn2cc(-c3cccc(-c4cccc(-c5cc6c(=O)n(CCC(=O)O)cnn6c5)c4Cl)c3Cl)cc2c1=O [Compound 24, 3,3′-((2,2′-dichloro-[1,1′-biphenyl]-3,3′-diyl)bis(4-oxopyrrolo[2,1-f][1,2,4]triazine-6,3(4H)-diyl))dipropionic acid] | ≥ 100 nM
O=C1CCC(Cn2cnn3cc(-c4cccc(-c5cccc(-c6cc7c(=O)n(CC8CCC(=O)O8)cnn7c6)c5Cl)c4Cl)cc3c2=O)O1 (stereo not drawn) [Compound 27, 6,6′-(2,2′-dichloro-[1,1′-biphenyl]-3,3′-diyl)bis(3-((5-oxotetrahydrofuran-2-yl)methyl)pyrrolo[2,1-f][1,2,4]triazin-4(3H)-one)] | ≥ 100 nM
O=C1CC[C@@H](Cn2c(C3CC3)cn3nc(-c4cccc(-c5cccc(-c6cc7c(=O)n(C[C@@H]8CCC(=O)N8)c(C8CC8)cn7n6)c5Cl)c4Cl)cc3c2=O)N1 [Compound 32, 2,2′-(2,2′-dichloro-[1,1′-biphenyl]-3,3′-diyl)bis(6-cyclopropyl-5-(((S)-5-oxopyrrolidin-2-yl)methyl)pyrazolo[1,5-a]pyrazin-4(5H)-one)] | 10 to 100 nM
CC(=O)NCCNCc1cn2cc(-c3cccc(-c4cccc(-c5cc6c(=O)n(C[C@@H]7CCC(=O)N7)c(CNCCNC(C)=O)cn6c5)c4Cl)c3Cl)cc2c(=O)n1C[C@@H]1CCC(=O)N1 [Compound 73, N,N′-(((((2,2′-dichloro-[1,1′-biphenyl]-3,3′-diyl)bis(1-oxo-2-(((S)-5-oxopyrrolidin-2-yl)methyl)-1,2-dihydropyrrolo[1,2-a]pyrazine-7,3-diyl))bis(methylene))bis(azanediyl))bis(ethane-2,1-diyl))diacetamide] | 10 to 100 nM
Cc1cn2nc(-c3cccc(-c4cccc(-c5cc6c(=O)n(CCNC7(C(=O)O)COC7)c(C)cn6n5)c4Cl)c3Cl)cc2c(=O)n1CCNC1(C(=O)O)COC1 [Compound 82, 3,3′-((((2,2′-dichloro-[1,1′-biphenyl]-3,3′-diyl)bis(6-methyl-4-oxopyrazolo[1,5-a]pyrazine-2,5(4H)-diyl))bis(ethane-2,1-diyl))bis(azanediyl))bis(oxetane-3-carboxylic acid)] | ≥ 100 nM

Continued, values first:

IC50 | SMILES
≥ 100 nM | O=C1CC[C@@H](Cn2ncn3cc(-c4cccc(-c5cccc(-c6cc7c(=O)n(C[C@@H]8CCC(=O)N8)ncn7c6)c5Cl)c4Cl)cc3c2=O)N1 [Compound 11, 7,7′-(2,2′-dichloro-[1,1′-biphenyl]-3,3′-diyl)bis(2-(((S)-5-oxopyrrolidin-2-yl)methyl)pyrrolo[1,2-d][1,2,4]triazin-1(2H)-one)]
< 10 nM | Cn1c(CNCCO)cn2nc(-c3cccc(-c4cccc(-c5cc6c(=O)n(C)c(CNCCO)cn6n5)c4Cl)c3Cl)cc2c1=O [Compound 42, 2,2′-(2,2′-dichloro-[1,1′-biphenyl]-3,3′-diyl)bis(6-(((2-hydroxyethyl)amino)methyl)-5-methylpyrazolo[1,5-a]pyrazin-4(5H)-one)]
≥ 100 nM | O=c1c2cc(-c3cccc(-c4cccc(-c5cc6c(=O)n(CCO)cnn6c5)c4Cl)c3Cl)cn2ncn1CCO [Compound 20, 6,6′-(2,2′-dichloro-[1,1′-biphenyl]-3,3′-diyl)bis(3-(2-hydroxyethyl)pyrrolo[2,1-f][1,2,4]triazin-4(3H)-one)]
10 to 100 nM | O=C1CC[C@@H](Cn2cnc3[nH]c(-c4cccc(-c5cccc(-c6cc7c(=O)n(C[C@@H]8CCC(=O)N8)cnc7[nH]6)c5Cl)c4Cl)cc3c2=O)N1 [Compound 14, 6,6′-(2,2′-dichloro-[1,1′-biphenyl]-3,3′-diyl)bis(3-(((S)-5-oxopyrrolidin-2-yl)methyl)-3,7-dihydro-4H-pyrrolo[2,3-d]pyrimidin-4-one)]
10 to 100 nM | O=C1CC[C@@H](Cn2ccc3sc(-c4cccc(-c5cccc(-c6cc7c(=O)n(C[C@@H]8CCC(=O)N8)ccc7s6)c5Cl)c4Cl)cc3c2=O)N1 [Compound 8, 2,2′-(2,2′-dichloro-[1,1′-biphenyl]-3,3′-diyl)bis(5-(((S)-5-oxopyrrolidin-2-yl)methyl)thieno[3,2-c]pyridin-4(5H)-one)]
< 10 nM | Cc1cn2cc(-c3cccc(-c4cccc(-c5cc6c(=O)n(C[C@@H]7CCC(=O)N7)c(C)cn6c5)c4Cl)c3Cl)cc2c(=O)n1C[C@@H]1CCC(=O)N1 [Compound 30, 7,7′-(2,2′-dichloro-[1,1′-biphenyl]-3,3′-diyl)bis(3-methyl-2-(((S)-5-oxopyrrolidin-2-yl)methyl)pyrrolo[1,2-a]pyrazin-1(2H)-one)]
≥ 100 nM | CN1CCN(CCn2cnn3cc(-c4cccc(-c5cccc(-c6cc7c(=O)n(CCN8CCN(C)CC8)cnn7c6)c5Cl)c4Cl)cc3c2=O)CC1 [Compound 26, 6,6′-(2,2′-dichloro-[1,1′-biphenyl]-3,3′-diyl)bis(3-(2-(4-methylpiperazin-1-yl)ethyl)pyrrolo[2,1-f][1,2,4]triazin-4(3H)-one)]
